{
  "source": "patent US20250127918A1",
  "about": "“SITE-SELECTIVE CONJUGATION OF A PHARMACEUTICAL AGENT TO AN ANTIBODY USING AN AFFINITY PEPTIDE” (priority 2023, published 2025)",
  "key": {"[1]": {"tested_on": "mouse IgG", "assay": "Azido transfer to mouse IgG in vivo (E1/E2 ELISA of serum)", "conditions": "subcutaneous injection of 30 mg/kg, WT Swiss mice, serum at 24 h, listed as N3-2-I", "protocol": "To evaluate the in vivo azido transfer in mice, two groups of mice were injected subcutaneously or intraperitoneally with the IgG-binder peptides. Mice were sacrificed at 24 hours post-injection, and the blood was collected for ELISA analysis. Sandwich ELISA assays. […] The percentage azido transfer was also compared with intraperitoneal injection of 10 mg/kg Z33-E20Hcy, intraperitoneal injection of 30 mg/kg of Z33-E20Hcy, subcutaneous injection of 30 mg/kg Z33-E20Hcy, and intraperitoneal injection of 30 mg/kg pegylated-Z33-E20Hcy (FIG. 2D).\nTwo sandwich ELISA assays have been developed in-house, one for the detection of the azido moiety conjugated mouse IgG (mIgG, E1), the other one for the detection of the whole mIgGs (modified and unmodified) in the sample (E2). Both E1 and E2 were run simultaneously on a same plate, using the same initial stock sample, and were processed in parallel at the same time for every steps. […] Absorbances were measured at 450 nm and 540 nm (A0=A450 nm-A540 nm) using a Spark microplate reader (Tecan, USA). The background noise (Ablank) from the serum was subtracted to get the final absorbance of the sample (Asample=A0-Ablank). The ratio Asample (E1)/Asample (E2) was calculated to estimate the percentage of azido transfer on the total amount of IgG in the sample. […]"}, "[2]": {"conditions": "mouse, in vivo, ip", "protocol": "Each sample was weighted and count in a gamma counter (Wizard2, Perkin Elmer LLC, USA) to get the counts per minutes (cpm) for determining the percentage of injected activity per gram (% IA/g) in each organ. Cpm were decay-corrected by using the following formula: A=A0 e((−(ln2)Δt)/T) with A=decay-corrected cpm, A0=raw cpm, Δt=time difference between the injection and the cpm measurement, and T=half-life of the radionuclide (i.e. 78.41 h for Zr-89)."}, "[3]": {"tested_on": "Denosumab (hIgG2)", "assay": "Small bioconjugation handle installation to other IgGs (Q-ToF LC-MS)", "format": "biochemical, human", "conditions": "20 equivalents, room temperature, HEPES pH 8.5", "protocol": "(§1) First, the electrophile-attached Z33 peptide reagent was dissolved in water to prepare a 2 mg/mL solution.\nas §1"}, "[4]": {"tested_on": "Mouse IgG1", "sequence (P01868 98-324 limits assumed)": "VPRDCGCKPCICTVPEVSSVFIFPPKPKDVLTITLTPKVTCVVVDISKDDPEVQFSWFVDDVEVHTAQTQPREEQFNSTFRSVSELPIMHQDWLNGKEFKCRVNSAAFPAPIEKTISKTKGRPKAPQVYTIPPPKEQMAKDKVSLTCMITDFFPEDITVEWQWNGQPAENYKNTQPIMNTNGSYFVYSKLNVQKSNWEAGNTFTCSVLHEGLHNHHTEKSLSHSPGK", "assay": "Small bioconjugation handle installation to other IgGs (Q-ToF LC-MS)", "format": "biochemical", "conditions": "20 equivalents, room temperature", "protocol": "Reactions were performed on a 10 μL scale using 0.2 mL PCR tubes (FIG. 64). First, the electrophile-attached Z33 peptide reagent was dissolved in water to prepare a 2 mg/mL solution. IgG (human WN1 (prepared as previously described (ChemBioChem, 19, 2039-2044 (2018)), denosumab (Invitrogen), dupilumab (Invitrogen), or mouse IgG1 (Invitrogen, subtype controlled)), electrophile-attached Z33 peptide reagent (2 mg/mL), HEPES buffer (pH 8.5), and NaCl solution were added to achieve final concentrations of 5 μM, 100 μM, 100 mM, and 200 mM. The contents were mixed using a 5 μL pipette and incubated at room temperature in the dark for 24 hours. The resulting reaction solution was quenched with a 100 mM Tris buffer and analyzed by LC-MS (FIGS. 53A to 53D, Table 10). Sample preparation for LC-MS analysis was performed in the same manner as previously described.\nReactions were performed on a 10 μL scale using 0.2 mL PCR tubes. First, the electrophile-attached Z33 peptide reagent was dissolved in water to prepare a 2 mg/mL solution. Denosumab (Invitrogen), dupilumab (Invitrogen), or mouse IgG1 (Invitrogen, subtype controlled)), electrophile-attached Z33 peptide reagent (2 mg/mL), HEPES buffer (pH 8.5), and NaCl solution were added to achieve final concentrations of 5 μM, 100 μM, 100 mM, and 200 mM. […] The resulting reaction solution was quenched with a 100 mM Tris buffer and analyzed by LC-MS. […]"}, "[5]": {"target": "Fc fragment of IgG1", "assay": "Binding affinity of Z33 and variants to IgG Fc"}},
  "data": [
    {"sequence": "FNMQQQRRFYEALHD PNLNHcyEQRNAKIKSI RDD [PEL-21]", "values": [
      {"measurement": "Azido transfer to mouse IgG in vivo (conversion rate)", "setting": "[1]", "result": "33±12", "unit": "%"},
      {"measurement": "Time remaining in specific organs", "setting": "[2]", "result": "up to 144 hours"},
      {"measurement": "Light chain total conversion", "setting": "[3]", "result": 1, "unit": "%"},
      {"measurement": "Light chain total conversion", "setting": "[4]; HEPES pH 8.5, first column so headed", "result": 2, "unit": "%"},
      {"measurement": "Light chain total conversion", "setting": "[4]; HEPES pH 8.5, second column so headed", "result": 69, "unit": "%"},
      {"measurement": "Kd", "setting": "[5]", "result": "~60", "unit": "nM"}
    ]}
  ]
}
